Measured values: a compilation of properties of binary mixtures (doi:10.1016/j.molliq.2021.116805)

Assay: xn = mol fraction of the nth substance listed
Conditions: 101 kPa

CCCCCCCCCCCCCC[n+]1ccn(C)c1.O=S(=O)([N-]S(=O)(=O)C(F)(F)F)C(F)(F)F + CCCCCCCCCCCCCCCCn1cc[n+](C)c1.O=S(=O)([N-]S(=O)(=O)C(F)(F)F)C(F)(F)F
viscosity (313 K, x1 = 0.6709): 102.6 mPa·s
viscosity (323 K, x1 = 0.6709): 66.3 mPa·s
viscosity (333 K, x1 = 0.6709): 45.2 mPa·s
viscosity (343 K, x1 = 0.6709): 32 mPa·s
viscosity (353 K, x1 = 0.6709): 23.4 mPa·s

CCCCCCCCCCCCCCCCCC[n+]1ccn(C)c1.O=S(=O)([N-]S(=O)(=O)C(F)(F)F)C(F)(F)F + CCCCCCCCCCCCCCCCn1cc[n+](C)c1.O=S(=O)([N-]S(=O)(=O)C(F)(F)F)C(F)(F)F
viscosity (333 K, x2 = 0.621): 59.3 mPa·s
viscosity (343 K, x2 = 0.621): 41.1 mPa·s
viscosity (353 K, x2 = 0.621): 29.6 mPa·s

CCCCCCCCCCCCCCCCCC[n+]1ccn(C)c1.O=S(=O)([N-]S(=O)(=O)C(F)(F)F)C(F)(F)F + CCCCCCCCCCCCCC[n+]1ccn(C)c1.O=S(=O)([N-]S(=O)(=O)C(F)(F)F)C(F)(F)F
viscosity (333 K, x2 = 0.7675): 49.6 mPa·s
viscosity (343 K, x2 = 0.7675): 34.8 mPa·s
viscosity (353 K, x2 = 0.7675): 25.4 mPa·s
